Experiment [1] concerns MC38-OVA tumor cells. Briefly: Murine MC38-OVA tumor model, in vivo CD8+ T cell depletion. The note with it: OVA immunized mice; 3 mM MgCl2 vs NaCl i.t.; anti-CD8a Ab 10 mg kg^−1 i.p. weekly. As for the experimental part: FIG. 1: Intratumoral magnesium administration improves adaptive anti-tumor immunity. (a) Schematic of experimental design. B1/6 mice, either immunized with OVA or left untreated, were inoculated subcutaneously with MC38-OVA tumor cells bilaterally on the flanks. From day 7, injection of 3 mM NaCl solution was applied in left flank tumor, whereas 3 mM MgCl2 solution was injected in contralateral tumor. This regimen was repeated every third day for a total of 8 cycles. (b) Tumor growth curves in non-immunized mice (n=20) (left panel), and immunized mice (n=19) (right panel). (c) Tumor growth curves in ±CD8 depleted mice (n=6-17). Results were pooled from 2 independent experiments, with n=6-12 mice each. (d) Absolute numbers of tumor-infiltrating CD8^+ T cells. (e) Number of tumor-infiltrating CD8^+ T cells positive for Ki67 (left panel), Granzyme B (middle panel) and CD25 (right panel). (f) Cell number of tumor-infiltrating CD8^+ T cells expressing PD-1 and Tim3. (g) Schematic of experimental design. B1/6 mice, immunized with OVA, were inoculated subcutaneously with MC38-OVA tumor cells unilaterally on the flank. From day 5, intratumoral injections of either 3 mM NaCl or 3 mM MgCl2 were initiated, and repeated every third day for 8 cycles. Mice were additionally injected with 200 μg i.p. of isotype control (IgG2a) or anti-PD-1 Ab on day 9, 12, and 15. […]

Experiment [2] deals with T1, LFA-1 (Homo sapiens, UniProt P05107+P20701).
T1 construct: endogenous in cells; host or cells: primary human T cells from healthy donors: PHA-induced T cell blasts, sorted EM and naive CD8 T cells, and NY-ESO-1 TCR-transduced REP T cells
T1 sequence (P20701 26-1170): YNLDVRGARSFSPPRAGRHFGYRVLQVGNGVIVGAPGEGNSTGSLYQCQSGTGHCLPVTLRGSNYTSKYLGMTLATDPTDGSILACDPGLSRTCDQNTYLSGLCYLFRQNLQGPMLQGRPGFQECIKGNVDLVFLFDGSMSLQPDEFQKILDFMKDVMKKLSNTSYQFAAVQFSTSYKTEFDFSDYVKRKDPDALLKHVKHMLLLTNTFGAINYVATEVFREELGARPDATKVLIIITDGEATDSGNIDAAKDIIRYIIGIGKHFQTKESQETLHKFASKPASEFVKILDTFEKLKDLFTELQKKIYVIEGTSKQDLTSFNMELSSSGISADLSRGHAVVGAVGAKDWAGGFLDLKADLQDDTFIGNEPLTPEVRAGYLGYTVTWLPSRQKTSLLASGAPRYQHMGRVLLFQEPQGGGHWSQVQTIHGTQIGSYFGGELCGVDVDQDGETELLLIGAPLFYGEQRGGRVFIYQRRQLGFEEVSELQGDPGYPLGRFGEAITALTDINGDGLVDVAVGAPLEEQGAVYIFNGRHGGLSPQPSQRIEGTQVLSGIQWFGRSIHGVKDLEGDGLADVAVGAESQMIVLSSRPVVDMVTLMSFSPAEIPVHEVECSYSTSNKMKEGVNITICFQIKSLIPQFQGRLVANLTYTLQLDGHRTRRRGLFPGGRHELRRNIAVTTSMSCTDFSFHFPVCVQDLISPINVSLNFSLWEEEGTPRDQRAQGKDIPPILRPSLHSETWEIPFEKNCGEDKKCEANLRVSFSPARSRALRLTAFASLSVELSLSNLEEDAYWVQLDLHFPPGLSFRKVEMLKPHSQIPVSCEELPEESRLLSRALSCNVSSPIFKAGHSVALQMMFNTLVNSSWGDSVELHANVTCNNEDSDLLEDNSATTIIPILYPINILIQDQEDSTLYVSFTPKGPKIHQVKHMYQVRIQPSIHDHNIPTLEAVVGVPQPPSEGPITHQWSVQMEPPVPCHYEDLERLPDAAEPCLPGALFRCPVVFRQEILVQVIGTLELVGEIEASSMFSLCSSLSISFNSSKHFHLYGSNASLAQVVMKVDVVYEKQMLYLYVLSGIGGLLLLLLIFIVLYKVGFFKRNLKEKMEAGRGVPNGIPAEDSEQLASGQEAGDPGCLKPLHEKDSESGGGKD
T1 sequence (P05107 23-769): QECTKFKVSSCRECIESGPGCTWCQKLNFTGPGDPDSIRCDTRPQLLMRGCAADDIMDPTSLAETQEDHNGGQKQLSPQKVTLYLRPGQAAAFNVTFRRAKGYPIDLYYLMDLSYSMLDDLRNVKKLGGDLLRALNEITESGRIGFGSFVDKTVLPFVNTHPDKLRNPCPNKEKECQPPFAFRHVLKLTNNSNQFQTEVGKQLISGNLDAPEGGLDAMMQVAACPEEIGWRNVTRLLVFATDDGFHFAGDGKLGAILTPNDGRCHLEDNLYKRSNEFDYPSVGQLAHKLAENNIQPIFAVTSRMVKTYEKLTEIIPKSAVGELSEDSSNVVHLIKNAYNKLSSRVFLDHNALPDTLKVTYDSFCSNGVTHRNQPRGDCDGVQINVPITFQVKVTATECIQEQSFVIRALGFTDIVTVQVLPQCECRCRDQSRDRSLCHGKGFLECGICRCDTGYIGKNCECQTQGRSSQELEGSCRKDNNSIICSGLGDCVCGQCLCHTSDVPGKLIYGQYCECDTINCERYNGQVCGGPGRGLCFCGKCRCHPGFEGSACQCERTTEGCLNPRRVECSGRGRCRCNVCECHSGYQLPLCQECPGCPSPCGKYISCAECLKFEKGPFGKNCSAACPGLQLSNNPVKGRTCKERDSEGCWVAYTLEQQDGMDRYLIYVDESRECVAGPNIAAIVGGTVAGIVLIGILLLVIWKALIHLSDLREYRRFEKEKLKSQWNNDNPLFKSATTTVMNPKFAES
As to the kind of experiment: Flow cytometry of LFA-1 open head-piece (mAb m24) on EM and naïve CD8 T cells. It is filed as cell-based. As for the experimental part: FIG. 2: Extracellular magnesium promotes memory-specific activation via LFA-1. Glycolytic switch of human EM CD8 T cells (a) and naïve CD8 T cells (b) subsets upon injection of anti-CD3 Ab only, or anti-CD3 and anti-CD28 Ab, was assessed by metabolic flux analysis in medium containing either 1.2 mM Mg^2+, 0 mM Mg^2+, or medium which was reconstituted from 0 mM to 1.2 mM Mg^2+ immediately prior to activation (0→1.2 mM Mg^2+). (a) Results for human effector memory (EM) and (b) for human naïve CD8 T cells. Glycolytic switch was quantified by subtracting […] measurements. (c) Flow cytometric analysis of surface activation markers on human EM CD8 T cells 24 hours after activation by plate-bound anti-CD3 Ab and soluble anti-CD28 Ab, in 1.2 mM and 0 mM Mg^2+ media, respectively. (d) Abundance of inflammatory cytokines in corresponding EM CD8 T cell culture supernatants, determined by CBA. (e) CD11a (LFA-1) surface expression on human naïve and EM CD8 T cells as well PHA T cell blasts. Flow cytometry-based assessment of total LFA-1 expression assessed by mAb TS2/4 (f), closed conformation of αL by mAb HI111 (g), extended conformation of LFA-1 by mAb Kim127 (h), open head-piece conformation of LFA-1 by mAb m24 (i), phosphorylation of focal adhesion kinase (FAK) […] as well TNF expression (k)±TCR-induced activation in different extracellular Mg^2+ concentrations. […]

With `[Mg+2]` [Mg^2+, Magnesium], in experiment [1], the “Tumor growth in ±CD8 depleted mice” value is “exerted its effect via CD8^+ T cells”. The “Activation induced LFA-1 head-piece opening (m24) on EM CD8 T cells” value in experiment [2] (Mg^2+-restricted conditions vs Mg^2+) is listed as “reduced activation induced LFA-1 head-piece opening”. Also, in experiment [2] (moderate TCR stimulation, ±Mg^2+), the “Activation induced LFA-1 head-piece opening (m24) on naïve CD8 T cells” value is “did not induce LFA-1 head-piece opening”.
